Laboratory results taken from patent US10865201B2, “Bicyclic compounds useful as GPR120 modulators” (Valo Health, Inc., priority 2016, dated 2020).

Tests used:
human GPR120 [1] = target: T1, human GPR120 (Homo sapiens, UniProt Q5NUL3); assay: Human GPR120 Calcium-Release Assay; type: cell-based; conditions: short variant of human GPR120 in CHO-K1 cells coexpressing Gα16 and mitochondrial apoaequorin; luminescence; read-out: Ca2+ pEC50 (converted)
T1 construct: expressed in transfected cells; host or cells: CHO-K1 coexpressing Gα16 and mitochondrial apoaequorin
T1 sequence (Q5NUL3 1-361): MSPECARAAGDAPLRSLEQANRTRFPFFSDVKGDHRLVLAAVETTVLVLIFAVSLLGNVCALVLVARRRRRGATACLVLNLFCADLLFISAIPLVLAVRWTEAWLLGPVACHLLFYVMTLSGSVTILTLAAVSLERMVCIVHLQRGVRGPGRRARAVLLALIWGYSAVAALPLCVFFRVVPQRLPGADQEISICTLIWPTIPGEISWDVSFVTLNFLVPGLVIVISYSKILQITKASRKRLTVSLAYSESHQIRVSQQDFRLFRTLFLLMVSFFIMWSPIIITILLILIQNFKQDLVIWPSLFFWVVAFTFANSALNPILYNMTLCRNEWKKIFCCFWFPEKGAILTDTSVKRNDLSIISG
From the text: This in vitro assay tests compounds' ability to activate heterologously expressed human GPR120 via G-protein coupling leading to generation of inositol 1,4,5-triphosphate and mobilization of intracellular calcium. This functional cellular assay is based on the luminescence of mitochondrial aequorin following intracellular Ca^2+ release. Aequorin is a photoprotein isolated from the jellyfish Aequorea victoria. The active protein is formed in the presence of molecular oxygen from apoaequorin and its cofactor coelenterazine. Binding of Ca^2+ to the active protein induces a conformational change, resulting in oxidation of coelenterazine and subsequent blue luminescence.
The short variant of the human GPR120 receptor (GenBank accession Number AAI01176) was stably expressed in a CHO-K1 cell line coexpressing Gα16 and mitochondrial apoaequorin.
Cells were grown to mid-log phase in culture media without antibiotics, were detached with PBS/EDTA, centrifuged and resuspended in assay buffer (DMEM-F12 medium with 15 mM HEPES pH 7.0 and 0.1% protease free BSA) at a concentration of 10^6 cells/mL. Cells were incubated at room temperature for at least 4 hours with 5 μM coelenterazine h.
Test compounds were dissolved in 100% DMSO to a concentration of 20 mM to provide stock solutions. Serial dilutions were performed from stock solutions in 100% DMSO to obtain intermediate concentrations 200-fold higher than the concentrations to be tested. Each sample was diluted 100-fold into assay buffer. 50 μl of these compound solutions were dispensed into each well of 96-well assay plates. The final concentration of compounds tested in the assay ranged from 5 nM to 100 μM. α-Linolenic acid was used as a reference compound. Each test was performed in duplicate.
To start the assay, 50 μl of cell suspension were added to each well of the assay plate. The resulting luminescence was recorded using a Hamamatsu Functional Drug Screening System 6000 (FDSS 6000), and raw data were expressed as relative light units (RLU).
(§1) To determine agonist potencies (EC50 values), non-linear least-squares curve fits of the raw data (RLU) were performed in the GraphPad Prism software package, using the 4-parameter model with variable Hill Slope:
Reported below in Table 1 are pEC50 values (pEC50=−log(EC50) from curve fit) for representative compounds of Formula I in this assay, Ca2+pEC50.

human GPR120 [2] = target: T2, human GPR120 (Homo sapiens, UniProt Q5NUL3); assay: Human GPR120 β-Arrestin Recruitment Assay; type: cell-based; conditions: CHO-K1 cells co-expressing ProLink-tagged human GPR120 and β-Arrestin 2/β-gal fusion; PathHunter; 90 minutes at 37° C.; read-out: β-Arr pEC50 (converted)
T2 construct: host or cells: CHO-K1
From the text: This in vitro assay tests compounds' ability to activate intracellular signaling via β-Arrestin recruitment to heterologously expressed human GPR120. This functional cellular assay utilizes enzyme fragment complementation with β-galactosidase (β-gal) as a functional reporter (DiscoveRx PathHunter® β-Arrestin assay platform). The human GPR120 receptor (GenBank accession Number NM_181745) was fused in frame with the small enzyme fragment ProLink™ and co-expressed in CHO-K1 cells with a fusion protein of β-Arrestin 2 and the larger, N-terminal deletion mutant of β-gal. Activation by a GPR120 agonist stimulates binding of β-arrestin to the ProLink-tagged GPCR and forces complementation of the two enzyme fragments, resulting in the formation of an active β-gal enzyme. This interaction leads to an increase in enzyme activity that can be measured using chemiluminescent PathHunter® Detection Reagents.
One day prior to the assay, cells were seeded in a total volume of 20 μl of growth medium into white walled 384-well microplates and incubated at 37° C./5% CO2 overnight. On the day of the assay, growth medium was removed and 20 μl assay buffer (HBSS+10 mM HEPES+0.1% heat-inactivated BSA) were added to each well.
Test compounds were dissolved in 100% DMSO to a concentration of 10 mM to provide stock solutions. Serial dilutions were performed from stock solutions into assay buffer to obtain intermediate concentrations of 5-fold higher than the concentrations to be tested. 5 μl of the 5x compound solutions were added to the cells and the assay plates were incubated alt 37° C. for 90 minutes, The final concentration of compounds tested in the assay ranged from 1.5 nM to 100 μM. Following incubation, 12.5 μl of PathHunter® detection reagent were added to each well, and plates were incubated at room temperature for 60 minutes. Chemiluminescence was read using an EnVision plate reader (PerkinElmer), raw data were expressed as relative light units (RLU).
as §1
T2 sequence (Q5NUL3 1-377 isoform Q5NUL3-1): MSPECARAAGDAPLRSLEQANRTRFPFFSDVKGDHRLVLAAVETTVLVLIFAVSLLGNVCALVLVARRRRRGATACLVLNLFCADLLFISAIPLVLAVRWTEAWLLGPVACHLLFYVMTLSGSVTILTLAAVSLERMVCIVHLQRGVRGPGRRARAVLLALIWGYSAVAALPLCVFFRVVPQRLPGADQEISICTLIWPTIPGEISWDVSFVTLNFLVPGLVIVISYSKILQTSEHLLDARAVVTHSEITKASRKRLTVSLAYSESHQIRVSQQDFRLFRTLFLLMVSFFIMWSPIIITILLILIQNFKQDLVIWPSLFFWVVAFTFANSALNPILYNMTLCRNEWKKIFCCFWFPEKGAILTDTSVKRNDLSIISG
T2 sequence (P32121 whole entry partner, the tested form may be a part): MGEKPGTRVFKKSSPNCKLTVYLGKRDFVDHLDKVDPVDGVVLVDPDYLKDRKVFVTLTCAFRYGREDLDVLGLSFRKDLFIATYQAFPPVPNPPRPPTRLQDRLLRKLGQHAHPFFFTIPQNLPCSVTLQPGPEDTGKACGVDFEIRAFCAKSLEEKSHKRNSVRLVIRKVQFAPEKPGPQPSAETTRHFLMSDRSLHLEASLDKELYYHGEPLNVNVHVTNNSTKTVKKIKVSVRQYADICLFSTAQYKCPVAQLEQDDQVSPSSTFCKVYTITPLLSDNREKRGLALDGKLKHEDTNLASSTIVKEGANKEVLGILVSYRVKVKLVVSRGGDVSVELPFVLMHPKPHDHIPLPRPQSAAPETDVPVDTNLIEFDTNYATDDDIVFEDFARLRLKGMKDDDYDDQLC
Reported below in Table 1 are pEC50 values (pEC50=−log(EC50) from curve fit) for compounds of Formula I in this assay, β-Arr pEC50.

Structure (SMILES)	EC50 (human GPR120 [1]) [µM]	EC50 (human GPR120 [2]) [µM]
O=S1(=O)c2ccc(Oc3cccc(Cl)c3)cc2CN1Cc1ccccc1 [Compound 3]	3.98	0.158
O=S1(=O)c2ccc(Oc3ccc(Cl)cc3)cc2CN1Cc1ccccc1 [Compound 4]	7.94	0.251
O=S1(=O)c2ccc(Oc3ccc(Cl)c(Cl)c3)cc2CN1Cc1ccccc1 [Compound 5]		1.58
O=S1(=O)c2ccc(OC3CC(F)(F)C3)cc2CN1Cc1ccccc1 [Compound 14]	20	12.6
O=S1(=O)c2ccc(OC3CCC3)cc2CN1Cc1ccccc1 [Compound 15]	0.794	0.501
O=S1(=O)c2ccc(Oc3cccnc3)cc2CN1Cc1cc(OC(F)(F)F)ccc1Cl [Compound 16]		3.16
O=S1(=O)c2ccc(Oc3ccccc3)cc2CN1c1ccccc1 [Compound 25]	1.26	1
O=S1(=O)c2ccc(Oc3ccncc3)cc2CN1c1ccccc1 [Compound 26]		> 31.6
O=S1(=O)c2ccc(Oc3ccccn3)cc2CN1c1ccccc1 [Compound 27]		> 31.6
O=S1(=O)c2ccc(Oc3cccc(Cl)c3)cc2CN1c1ccccc1 [Compound 28]	39.8	0.794
O=S1(=O)c2ccc(Oc3ccc(Cl)c(Cl)c3)cc2CN1c1ccccc1 [Compound 29]	> 100	> 31.6
O=S1(=O)c2ccc(OC3CCC3)cc2CN1c1ccccc1 [Compound 30]	> 100	2.51
O=S1(=O)c2ccc(Oc3cccnc3)cc2CN1c1cccc(OC(F)(F)F)c1 [Compound 33]		5.01
O=S1(=O)c2ccc(Oc3ccc(Cl)cc3)cc2CN1c1ccccc1 [Compound 37]		> 10
O=S1(=O)c2ccc(OCc3ccccc3)cc2CN1c1ccccc1 [Compound 38]		5.01
O=S1(=O)c2ccc(OCc3cccnc3)cc2CN1c1ccccc1 [Compound 40]		> 31.6
O=S1(=O)c2ccc(Oc3cccnc3)cc2CN1c1cc(OC(F)(F)F)ccc1Cl [Compound 41]		> 31.6
O=S1(=O)c2ccc(Oc3cccnc3)cc2CN1C1CCC1 [Compound 44]		12.6
O=C1c2ccc(Oc3cccnc3)cc2CN1c1ccccc1 [Compound 45]		> 10
O=C1c2ccc(Oc3cccnc3)cc2CN1Cc1ccccc1 [Compound 46]	10	6.31

The remaining lines, values ahead:

EC50 (human GPR120 [1]) [µM]	EC50 (human GPR120 [2]) [µM]	Structure (SMILES)
1	0.501	O=S1(=O)c2ccc(Oc3ccccc3)cc2CN1Cc1ccccc1 [Compound 2]
	> 10	O=S1(=O)c2ccc(Oc3cccnc3)cc2CN1Cc1c(Cl)cccc1Cl [Compound 6]
2	3.98	O=S1(=O)c2ccc(Oc3cccnc3)cc2CN1Cc1c(F)cccc1Cl [Compound 7]
	6.31	O=S1(=O)c2ccc(Oc3cccnc3)cc2CN1Cc1ccccc1Cl [Compound 8]
1.58	1.26	O=S1(=O)c2ccc(Oc3cccnc3)cc2CN1Cc1cccc(Cl)c1 [Compound 9]
2.51	3.16	O=S1(=O)c2ccc(Oc3cccnc3)cc2CN1Cc1ccc(Cl)cc1 [Compound 10]
3.98	7.94	O=S1(=O)c2ccc(Oc3cccnc3)cc2CN1Cc1ccc(Cl)cc1Cl [Compound 11]
	> 31.6	CN1Cc2cc(Oc3cccnc3)ccc2S1(=O)=O [Compound 12]
	> 10	CC(c1ccccc1)N1Cc2cc(Oc3cccnc3)ccc2S1(=O)=O (centres unmarked) [Compound 13]
	> 10	O=S1(=O)c2ccc(Oc3cccnc3)cc2CN1CCc1ccccc1 [Compound 17]
15.8	7.94	O=S1(=O)c2ccc(Oc3cccnc3)cc2CN1Cc1cccnc1 [Compound 19]
10	3.16	O=S1(=O)c2ccc(Oc3cccnc3)cc2CN1Cc1ccncc1 [Compound 20]
	> 31.6	O=C(O)c1ccc(CN2Cc3cc(Oc4cccnc4)ccc3S2(=O)=O)cc1 [Compound 21]
	> 31.6	O=C(O)c1cccc(CN2Cc3cc(Oc4cccnc4)ccc3S2(=O)=O)c1 [Compound 22]
	2	Cc1cc(Oc2cccnc2)cc2c1S(=O)(=O)N(Cc1ccccc1)C2 [Compound 23]
2.51	7.94	O=S1(=O)c2ccc(Oc3cccnc3)cc2CN1c1ccccc1 [Compound 24]
	> 10	O=S1(=O)c2ccc(Oc3cccnc3)cc2CN1c1cccnc1 [Compound 31]
	1.58	O=S1(=O)c2ccc(Oc3cccnc3)cc2CN1c1cccc(Cl)c1 [Compound 32]
10	15.8	O=S1(=O)c2ccc(Oc3cccnc3)cc2CN1c1ccccn1 [Compound 34]
	12.6	O=S1(=O)c2ccc(Oc3cccnc3)cc2CN1c1ccncc1 [Compound 35]
	> 10	O=C(O)c1cccc(N2Cc3cc(Oc4cccnc4)ccc3S2(=O)=O)c1 [Compound 36]
